Measurements: patent US5629347A, “Aromatic compounds, pharmaceutical compositions containing them and their use in therapy” (Merck Sharp & Dohme Ltd., priority 1991, dated 1997)
Counter-ions that a name gives are not always drawn.

Target: human NK1R (Homo sapiens, UniProt P25103)
Assay: biochemical
Format: binding
Conditions: for IC50: displacement of 125I-substance P, human NK1R in COS or CHO cells
Procedure: To express the cloned human neurokinin-1-receotor (NK1R) transiently in COS, the cDNA for the human NK1R was cloned into the expression vector pCDM9 which was derived from pCDM8 (INVITROGEN) by inserting the ampicillin resistance gene (nucleotide 1973 to 2964 from BLUESCRIPT SK+ (trademark, […], La Jolla, Calif., U.S.A.)) into the Sac II site. Transfection of 20 ug of the plasmid DNA into 10 million COS cells was achieved by electroporation in 800 μl of transfection buffer (135 mM NaCl, 1.2 mM CaCl2, 1.2 mM MgCl2, 2.4 mM K2 HPO4, 0.6 mM KH2 PO4, 10 mM glucose, 10 mM N-2-hydroxyethyl-piperazine-N'-2-ethane sulphonic acid (HEPES) pH 7.4) at 260 V and 950 μF using the IBI GENEZAPPER (trademark IBI, New Haven, Conn., U.S.A.). The cells were incubated in 10% fetal calf serum, 2 mM glutamine, 100 U/ml penicillin-streptomycin, and 90% DMEM media (GIBCO, Grand Island, N.Y., U.S.A.) in 5% CO2 at 37° C. for three days before the binding assay.
To establish a stable cell line expressing cloned human NK1R, the cDNA was subcloned into the vector pRcCMV (INVITROGEN). Transfection of 20 ug of the plasmid DNA into CHO cells was achieved by electroporation in 800 μl of transfection buffer supplemented with 0.625 mg/ml Herring sperm DNA at 300 V and 950 μF using the IBI GENEZAPPER (IBI). The transfected cells were incubated. in CHO media [10% fetal calf serum, 100 U/ml penicillin-streptomycin, 2 mM glutamine, 1/500 hypoxanthinethymidine (ATCC), 90% IMDM media (JRH BIOSCIENCES, Lenexa, Kans., U.S.A.), 0.7 mg/ml G418 (GIBCO)] in 5% CO2 at 37° C. until colonies were visible. Each colony was separated and propagated. The cell clone with the highest number of human NK1R was selected for subsequent applications such as drug screening.
The binding assay of human NK1R expressed in either COS or CHO cells is based on the use of ^125 I-substance P (^125 I-SP, from DU PONT, Boston, Mass.) as a radioactively labeled ligand which competes with unlabeled substance P or any other ligand for binding to the human NK1R. […] The tubes were incubated at 4° C. or at room temperature for 1 hour with gentle shaking. The bound radioactivity was separated from unbound radioactivity by GF/C filter (BRANDEL, Gaithersburg, Md.) which was prewetted with 0.1% polyethylenimine. The filter was washed with 3 ml of wash buffer (50 mM Tris pH 7.5, 5 mM MnCl2, 150 mM NaCl) three times and its radioactivity was determined by gamma counter.

Sequence of human NK1R (P25103 whole entry): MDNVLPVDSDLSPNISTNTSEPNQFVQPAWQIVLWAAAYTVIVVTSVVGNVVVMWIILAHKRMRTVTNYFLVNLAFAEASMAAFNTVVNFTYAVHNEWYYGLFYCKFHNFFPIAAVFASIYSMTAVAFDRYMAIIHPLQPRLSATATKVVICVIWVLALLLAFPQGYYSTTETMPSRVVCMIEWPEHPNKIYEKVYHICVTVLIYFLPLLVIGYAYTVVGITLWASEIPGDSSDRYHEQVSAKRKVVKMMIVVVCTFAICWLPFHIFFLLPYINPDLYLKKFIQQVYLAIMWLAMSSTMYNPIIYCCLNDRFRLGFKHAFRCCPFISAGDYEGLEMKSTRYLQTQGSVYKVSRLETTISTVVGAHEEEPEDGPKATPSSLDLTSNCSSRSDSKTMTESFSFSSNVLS

| SMILES | IC50 [nM] | inhibition at 0.3 µM (1 h, @ 03 μM, read-out: Substance P antagonism (%)) [%] |
| --- | --- | --- |
| NC(=O)CNC(COCc1cc(C(F)(F)F)cc(C(F)(F)F)c1)C(c1ccccc1)c1ccccc1 (stereo not shown) [Example 30, 1-((3,5-Bis(trifluoromethyl)phenyl)methyloxy)-2-((carboxamido)methyl)ammoninm)-3,3-diphenylpropane oxalate salt] | 0.4 | – |
| NC(COCc1cccc(Br)c1)C(c1ccccc1)c1ccccc1 (stereo not shown) [Example 31, 2-Ammonium-1-((3-bromophenyl)methyloxy)-3,3-diphenylpropane oxalate salt] | 200 | – |
| NC(COCc1cc(Br)cc(Br)c1)C(c1ccccc1)c1ccccc1 (stereo not shown) [Example 32, 2-Ammonium-1-((3,5-dibromophenyl)methyloxy)-3,3-diphenylpropane oxalate salt] | 30 | – |
| Cc1cc(Br)cc(COCC(N)C(c2ccccc2)c2ccccc2)c1 (stereo not shown) [Example 33, 2-Ammonium-1-((3-bromo-5-methylphenyl)methyloxy)-3,3-diphenylpropane oxalate salt] | 20 | – |
| N#CCNC(COCc1cc(C(F)(F)F)cc(C(F)(F)F)c1)C(c1ccccc1)c1ccccc1 (stereo not shown) [Example 34, 1-((3,5-Bis(trifluoromethyl)phenyl)methyloxy)-2-(cyanomethyl)amino-3,3-diphenylpropane] | 10 | – |
| Cc1cc(C)cc(COCC(C(c2ccccc2)c2ccccc2)N(C)CC(N)=O)c1 (stereo not shown) [Example 36, 2-(N-((Carboxamido)methyl)-N-methyl)ammonium-1-((3,5-dimethylphenyl)methyloxy)-3,3-diphenyl propane oxalate salt] | 7 | – |
| CC(=O)N(C)C(COCc1cc(C)cc(C)c1)C(c1ccccc1)c1ccccc1 (stereo not shown) [Example 37] | 200 | – |
| CC(=O)NC(COCc1cc(C)cc(C)c1)C(c1ccccc1)c1ccccc1 (stereo not shown) [Example 38, 2-Acetamido-1-(((3,5-dimethyl)phenyl)methyloxy)-3,3-diphenylpronane] | 70 | – |
| Cc1cc(C)cc(COCC(C(c2ccccc2)c2ccccc2)N(C)C(=O)c2ccccc2)c1 (stereo not shown) [Example 39, 2-(((N-Methyl)benzamido)-1-((3,5-dimethyl)phenyl)methyloxy)-3,3-diphenylpropane] | 800 | – |
| Cc1cc(C)cc(COCC(NC(=O)c2ccccc2)C(c2ccccc2)c2ccccc2)c1 (stereo not shown) [Example 40, 2-Benzamido-1-(((3,5-dimethyl)phenyl)methyloxy)3,3-diphenylpropane] | 580 | – |
| CNC(=O)NC(COCc1cc(C(F)(F)F)cc(C(F)(F)F)c1)C(c1ccccc1)c1ccccc1 (stereo not shown) [Example 42, N-(1-((3',5'-Bis(trifluoromethyl)phenyl)methyloxy)-3,3-diphenylprop-2-yl)-N'-methyl urea] | 40 | – |
| O=C(Nc1ccccc1)NC(COCc1cc(C(F)(F)F)cc(C(F)(F)F)c1)C(c1ccccc1)c1ccccc1 (stereo not shown) [Example 43, N-(1-((3',5'-Bis(trifluoromethyl)phenyl)methyloxy)-3,3-diphenylprop-2-yl)-N'-phenylurea] | – | 50 |
| O=C(O)CNC(COCc1cc(C(F)(F)F)cc(C(F)(F)F)c1)C(c1ccccc1)c1ccccc1 (stereo not shown) [Example 44, N-(1-((3',5'-Bis(trifluoromethyl)phenyl)methyloxy)-3,3-diphenylprop-2-yl)glycine] | 15 | – |
| Cc1cc(C)cc(COCC(NCC(=O)O)C(c2ccccc2)c2ccccc2)c1 (stereo not shown) [Example 45, N-(1-(((3',5'-Dimethyl)phenyl)methyloxy)-3,3-diphenylprop-2-yl)glycine] | 40 | – |
| Cc1cc(C)cc(COCC(NCC(=O)NCC(N)=O)C(c2ccccc2)c2ccccc2)c1 (stereo not shown) [Example 46, N-(1-(((3',5'-Dimethyl)phenyl)methyloxy)-3,3-diphenylprop-2-yl)glycylglycine amide] | 4 | – |
| Cc1cc(C)cc(COCC(NCC(=O)NCc2ccccc2)C(c2ccccc2)c2ccccc2)c1 (stereo not shown) [Example 47, N-(1-(((3',5'-Dimethyl)phenyl)methyloxy)-3,3-diphenylprop-2-yl)glycylbenzamide oxalate salt] | 15 | – |

| SMILES | IC50 [nM] | inhibition at 0.3 µM (1 h, @ 03 μM, read-out: Substance P antagonism (%)) [%] |
| --- | --- | --- |
| CN(C)C(=O)CNC(COCc1cc(C(F)(F)F)cc(C(F)(F)F)c1)C(c1ccccc1)c1ccccc1 (stereo not shown) [Example 48, N-(1-((3',5'-Bis(trifluoromethyl)phenyl)methyloxy)-3,3-diphenylprop-2-yl)glycine dimethylamide hydrochloride salt] | 10 | – |
| CN(C)C(=O)CN(C)C(COCc1cc(C(F)(F)F)cc(C(F)(F)F)c1)C(c1ccccc1)c1ccccc1 (stereo not shown) [Example 49, N-(1-((3',5'-Bis(trifluoromethyl)phenyl)methyloxy)-3,3-diphenylprop-2-yl)-N-methylglycine dimethylamide oxalate salt] | 15 | – |
| O=C(CNC(COCc1cc(C(F)(F)F)cc(C(F)(F)F)c1)C(c1ccccc1)c1ccccc1)NCCO (stereo not shown) [Example 50, N-(1-((3',5'-Bis(trifluoromethyl)phenyl)methyloxy)-3,3-diphenylprop-2-yl)glycine 2-hydroxyethylamide] | 1 | – |
| COCCNC(=O)CNC(COCc1cc(C(F)(F)F)cc(C(F)(F)F)c1)C(c1ccccc1)c1ccccc1 (stereo not shown) [Example 51, N-(1-((3',5'-Bis(trifluoromethyl)phenyl)methyloxy)-3,3-diphenylprop-2-yl)glycine 2-methoxyethylamide] | 1 | – |
| CN(C)CCNC(=O)CNC(COCc1cc(C(F)(F)F)cc(C(F)(F)F)c1)C(c1ccccc1)c1ccccc1 (stereo not shown) [Example 52, N-(1-((3',5'-Bis(trifluoromethyl)phenyl)methyloxy)-3,3-diphenylprop-2-yl)glycine N',N'-dimethylethylamide bis oxalate salt] | 1 | – |
| CNC(=O)CN(C)C(COCc1cc(C(F)(F)F)cc(C(F)(F)F)c1)C(c1ccccc1)c1ccccc1 (stereo not shown) [Example 54, 1-((3,5-Bis(trifluoromethyl)phenyl)methyloxy)-2-((N-((methylcarboxamido)methyl)-N-methyl)amino)-3,3-diphenylpropane monohydrate] | 2 | – |
| Cc1cc(C)cc(COC[C@H](C(c2ccccc2)c2ccccc2)N(C)C)c1 [Example 55, (S)-2-Dimethylammonium-1-((3,5-dimethylphenyl)methyloxy)-3,3-diphenylpropane Oxalate salt] | 2 | – |
| Cc1cc(C)cc(COC[C@@H](C(c2ccccc2)c2ccccc2)N(C)C)c1 [Example 56, (R)-2-Dimethylammonium-1-((3,5-dimethylphenyl)methyloxy)-3,3-diphenylpropane tosylate salt] | 18 | – |
| NC(=O)CN[C@H](COCc1cc(C(F)(F)F)cc(C(F)(F)F)c1)C(c1ccccc1)c1ccccc1 [Example 57, (S)-1-((3',5'-Bis(trifluoromethyl)phenyl)methyloxy)-2-(((carboxamido)methyl)ammonium)-3,3-diphenylpropane oxalate salt] | 0.8 | – |
| O=C(CCl)NC(COCc1cc(C(F)(F)F)cc(C(F)(F)F)c1)C(c1ccccc1)c1ccccc1 (stereo not shown) [Example 60] | 80 | – |
| NCC(=O)NC(COCc1cc(C(F)(F)F)cc(C(F)(F)F)c1)C(c1ccccc1)c1ccccc1 (stereo not shown) [Example 61, 2-(2-Ammoniumacetamido)-1-((3,5-bis(trifluoromethyl)phenyl)methyloxy)-3,3-diphenylpropane oxalate salt hemihydrate] | 30 | – |
| CN(C)CC(=O)NC(COCc1cc(C(F)(F)F)cc(C(F)(F)F)c1)C(c1ccccc1)c1ccccc1 (stereo not shown) [Example 62, 2-(2-(Dimethylamino)acetamido)-1-((3,5-bis(trifluoromethyl)phenyl)methyloxy)-3,3-diphenylpropane] | 200 | – |
| O=C1CCC(C(=O)NC(COCc2cc(C(F)(F)F)cc(C(F)(F)F)c2)C(c2ccccc2)c2ccccc2)N1 (stereo not shown) [Example 63, 1-((3,5-Bis(trifluoromethyl)phenyl)methyloxy)-3,3-diphenyl-2-(pyroglutamylamido)propane] | 30 | – |
| COC(=O)CCNC(COCc1cc(C(F)(F)F)cc(C(F)(F)F)c1)C(c1ccccc1)c1ccccc1 (stereo not shown) [Example 65, 1-((3,5-Bis(trifluoromethyl)phenyl)methyloxy)-2-(2-(carbomethoxy)ethylamino)-3,3-diphenylpropane] | 35 | – |
| O=C1CN(C(COCc2cc(C(F)(F)F)cc(C(F)(F)F)c2)C(c2ccccc2)c2ccccc2)CCN1 (stereo not shown) [Example 66, 4-((1-((3,5-Bis(trifluoromethyl)phenyl)methyloxy)-3,3-diphenyl)prop-2-yl)piperazinium-2-one hemi oxalate salt] | 4 | – |
